From ChEMBL document CHEMBL1201862, “PubChem BioAssay data set” (2004)
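Step 1: Grow cells in 96-well plates. Step 2: Expose to compound for 48 hours at 5 concentrations. Step 3: Interpolate endpoints linearly; if unreached, use highest concentration. GI50 marks 50% less growth.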 Calls of active or inactive are those of the source. Cut-off read from the data, not from the text of the source: active = GI50 up to about 1.1 µM and inactive = higher.

Key:
Test in all cases: growth of human tumour cells (NCI), 48 h
UACC-62 = test system: UACC-62
SF-539 = test system: SF-539
OVCAR-4 = test system: OVCAR-4
RXF 393 = test system: RXF 393
NCI-H226 = test system: NCI-H226
U-251 = test system: U-251
NCI-H522 = test system: NCI-H522
SW-620 = test system: SW-620
DMS-114 = test system: DMS-114
HCC 2998 = test system: HCC 2998
SK-MEL-5 = test system: SK-MEL-5
COLO 205 = test system: COLO 205
NCI-H460 = test system: NCI-H460
CCRF-CEM = test system: CCRF-CEM
TK-10 = test system: TK-10
EKVX = test system: EKVX
T47D = test system: T47D
MCF7 = test system: MCF7
DU-145 = test system: DU-145
PC-3 = test system: PC-3

Structure (SMILES)	GI50 (UACC-62)	GI50 (SF-539)	GI50 (OVCAR-4)	GI50 (RXF 393)	GI50 (NCI-H226)	GI50 (U-251)	GI50 (NCI-H522)	GI50 (SW-620)	GI50 (DMS-114)	GI50 (HCC 2998)	GI50 (SK-MEL-5)	GI50 (COLO 205)	GI50 (NCI-H460)	GI50 (CCRF-CEM)	GI50 (TK-10)	GI50 (EKVX)	GI50 (T47D)	GI50 (MCF7)	GI50 (DU-145)	GI50 (PC-3)
CC1(C)N=C(Oc2ccccc2)n2nccc2N1	63.4 µM (inactive)	> 100 µM (inactive)	> 100 µM (inactive)	> 100 µM (inactive)	> 100 µM (inactive)	> 100 µM (inactive)	40.9 µM (inactive)	> 100 µM (inactive)	> 100 µM (inactive)	> 100 µM (inactive)	> 100 µM (inactive)	87.1 µM (inactive)	75 µM (inactive)	> 100 µM (inactive)	> 100 µM (inactive)	> 100 µM (inactive)				
Nc1n[nH]c(N)n1 [GUANAZOLE]	2620 µM (inactive)	2510 µM (inactive)	> 9120 µM (inactive)	6820 µM (inactive)	5860 µM (inactive)	3800 µM (inactive)	2680 µM (inactive)	> 9380 µM (inactive)	1800 µM (inactive)	6900 µM (inactive)	3940 µM (inactive)	> 8990 µM (inactive)	3270 µM (inactive)	1720 µM (inactive)	> 10000 µM (inactive)	7350 µM (inactive)	> 9160 µM (inactive)	3400 µM (inactive)	5130 µM (inactive)	8510 µM (inactive)
CCCCCCCCCCCCCCCC[N+](C)(C)Cc1ccc(C[N+](C)(C)CCCCCCCCCCCCCCCC)cc1	4.13 µM (inactive)	2.02 µM (inactive)	3.23 µM (inactive)	0.923 µM (active)		1.96 µM (inactive)	2.58 µM (inactive)	2.99 µM (inactive)	1.85 µM (inactive)	3.72 µM (inactive)	6.12 µM (inactive)	2.7 µM (inactive)	2.51 µM (inactive)	1.46 µM (inactive)	17.8 µM (inactive)	3 µM (inactive)				
COC(=O)c1cc(C)n(NC(=O)OC(C)(C)C)c1C	> 100 µM (inactive)	> 100 µM (inactive)		> 100 µM (inactive)	> 100 µM (inactive)	> 100 µM (inactive)	> 100 µM (inactive)	> 100 µM (inactive)	> 100 µM (inactive)	> 100 µM (inactive)	> 100 µM (inactive)	> 100 µM (inactive)	> 100 µM (inactive)	> 100 µM (inactive)	> 100 µM (inactive)	> 100 µM (inactive)				
COc1ccc(C2S/C(=C\c3cc(OC)c(OC)c(OC)c3)C(=O)N2NC(=O)Cc2ccccc2)cc1 (stereo not given)	> 100 µM (inactive)	> 100 µM (inactive)	> 100 µM (inactive)	> 100 µM (inactive)	> 100 µM (inactive)	> 100 µM (inactive)	> 100 µM (inactive)	> 100 µM (inactive)	72.9 µM (inactive)		22.1 µM (inactive)	> 100 µM (inactive)	> 100 µM (inactive)	> 100 µM (inactive)	> 100 µM (inactive)					
CC1=CC2=C(OCO1)C(=O)c1ccccc1C2=O	5.11 µM (inactive)	6.14 µM (inactive)	3.73 µM (inactive)	4.61 µM (inactive)	10.4 µM (inactive)	1.36 µM (inactive)	2.57 µM (inactive)	8.09 µM (inactive)	3.35 µM (inactive)	30.5 µM (inactive)	1.5 µM (inactive)	5.86 µM (inactive)	7.11 µM (inactive)	10.1 µM (inactive)	28.1 µM (inactive)	46.7 µM (inactive)	2.43 µM (inactive)		2.16 µM (inactive)	3.18 µM (inactive)
Nc1ccn(CCOC(c2ccccc2)P(=O)(O)O)c(=O)n1 (stereo not given)	> 100 µM (inactive)	> 100 µM (inactive)		> 100 µM (inactive)	> 100 µM (inactive)	> 100 µM (inactive)	> 100 µM (inactive)	> 100 µM (inactive)	> 100 µM (inactive)	> 100 µM (inactive)	> 100 µM (inactive)	> 100 µM (inactive)	> 100 µM (inactive)	> 100 µM (inactive)	> 100 µM (inactive)	> 100 µM (inactive)				
O=c1[nH]c2cccccc-2c1-c1nc2ccccc2[nH]1	17.9 µM (inactive)	22.4 µM (inactive)	20.6 µM (inactive)	20.9 µM (inactive)	11.1 µM (inactive)	21.8 µM (inactive)	19.3 µM (inactive)	69.5 µM (inactive)	10.3 µM (inactive)	38.7 µM (inactive)	18.7 µM (inactive)	> 100 µM (inactive)	7.01 µM (inactive)	25.5 µM (inactive)	92.7 µM (inactive)	40.8 µM (inactive)				
CCCCN(CCCC)CC(C(=O)Nc1ccccc1)/C(C)=N\NC(=O)c1ccncc1 (stereo not given)	59.3 µM (inactive)	> 100 µM (inactive)	> 100 µM (inactive)	> 100 µM (inactive)	> 100 µM (inactive)	> 100 µM (inactive)	> 100 µM (inactive)	> 100 µM (inactive)	63 µM (inactive)	> 100 µM (inactive)	> 100 µM (inactive)	> 100 µM (inactive)	46 µM (inactive)		> 100 µM (inactive)					
COc1ccccc1C(N)c1ccccc1 (stereo not given)	> 100 µM (inactive)	> 100 µM (inactive)	> 100 µM (inactive)	> 100 µM (inactive)	> 100 µM (inactive)	> 100 µM (inactive)	> 100 µM (inactive)	> 100 µM (inactive)	> 100 µM (inactive)	> 100 µM (inactive)	> 100 µM (inactive)	> 100 µM (inactive)	> 100 µM (inactive)	> 100 µM (inactive)	> 100 µM (inactive)	> 100 µM (inactive)				
C=CCN(N=O)C(=O)NCCCC(NC(C)=O)C(=O)NCc1ccccc1 (stereo not given)	> 100 µM (inactive)	98.2 µM (inactive)	> 100 µM (inactive)	> 100 µM (inactive)	> 100 µM (inactive)	> 100 µM (inactive)	> 100 µM (inactive)	> 100 µM (inactive)	> 100 µM (inactive)		> 100 µM (inactive)	> 100 µM (inactive)	> 100 µM (inactive)	> 100 µM (inactive)	> 100 µM (inactive)	> 100 µM (inactive)				
